Data as given in patent US12071425B2 (Genentech, Inc., priority 2018, dated 2024).
Counter-ions that a name gives are not always drawn.

What follows are molecules tested against kinase domain of IRE1 alpha (His-tagged kinase dead construct KR, AA G547-L977, D688N) (Homo sapiens (Human), UniProt O75460, D688N) (assay: IRE1α TR-FRET competition binding assay). Details: competition with Kinase Tracer 236, 0.1 μM; one hour at room temperature.
Outline: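 Compound displacement of an ATP-site fluorescent tracer (0.1 μM final) measured by TR-FRET after 1 h at room temperature. Protein, a His-tagged D688N kinase/RNase construct from Sf9 cells (0.006 μM final), was pre-bound 1 h at 4° C to Eu anti-His antibody (0.002 μM) in pH 7.5 HEPES buffer.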

Sequence of kinase domain of IRE1 alpha (His-tagged kinase dead construct KR, AA G547-L977, D688N) (O75460 547-977 D688N): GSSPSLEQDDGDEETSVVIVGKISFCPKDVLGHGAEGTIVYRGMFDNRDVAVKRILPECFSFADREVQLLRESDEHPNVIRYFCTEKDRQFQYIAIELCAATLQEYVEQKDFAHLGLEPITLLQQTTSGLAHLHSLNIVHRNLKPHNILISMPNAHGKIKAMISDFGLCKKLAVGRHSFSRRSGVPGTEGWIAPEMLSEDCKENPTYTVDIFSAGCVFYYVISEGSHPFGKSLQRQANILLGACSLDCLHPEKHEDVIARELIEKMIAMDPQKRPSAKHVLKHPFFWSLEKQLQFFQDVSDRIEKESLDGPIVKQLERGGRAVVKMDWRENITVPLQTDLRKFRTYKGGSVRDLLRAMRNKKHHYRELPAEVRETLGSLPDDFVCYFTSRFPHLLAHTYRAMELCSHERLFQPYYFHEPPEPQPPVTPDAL

Compound | IC50 [nM]
C[C@@]1(F)CNC[C@@H](Nc2nccc(-c3cccnc3Oc3cc(F)c(NS(=O)(=O)CC4CC(F)(F)C4)c(F)c3F)n2)C1 [Compound 251, 1-(3,3-Difluorocyclobutyl)-N-(2,3,6-trifluoro-4-((3-(2-(((3S,5S)-5-fluoro-5-methylpiperidin-3-yl)amino)pyrimidin-4-yl)pyridin-2-yl)oxy)phenyl)methanesulfonamide] | 2.8
CN1CCN(Cc2ccc(NC(=O)Nc3cccc(Oc4ncccc4-c4ccnc(N[C@@H]5CNC[C@@H](F)C5)n4)c3)cc2C(F)(F)F)CC1 [Compound 286, 1-(3-((3-(2-(((3S,5S)-5-Fluoropiperidin-3-yl)amino)pyrimidin-4-yl)pyridin-2-yl)oxy)phenyl)-3-(4-((4-methylpiperazin-1-yl)methyl)-3-(trifluoromethyl)phenyl)urea hydrochloride] | 260
CCCS(=O)(=O)Nc1c(F)cc(Oc2ncccc2-c2ccnc(N[C@H]3CC[C@H](N(C)C)CC3)n2)c(F)c1F [Compound 309, N-(4-((3-(2-(((1r,4r)-4-(Dimethylamino)cyclohexyl)amino)pyrimidin-4-yl)pyridin-2-yl)oxy)-2,3,6-trifluorophenyl)propane-1-sulfonamide] | 1.1
Cc1ccccc1CS(=O)(=O)Nc1c(F)cc(Oc2ncccc2-c2ccnc(N[C@@H]3CNC[C@@H](F)C3)n2)c(F)c1F [Compound 386, 1-o-Tolyl-N-(2,3,6-trifluoro-4-((3-(2-(((3S,5S)-5-fluoropiperidin-3-yl)amino)pyrimidin-4-yl)pyridin-2-yl)oxy)phenyl)methanesulfonamide] | 0.3
Cc1c(Oc2ncccc2-c2ccnc(N[C@@H]3CNC[C@@H](F)C3)n2)cc(F)c(NS(=O)(=O)Cc2ccccc2)c1F [Compound 179, N-(2,6-difluoro-4-((3-(2-(((3S,5S)-5-fluoro-3-piperidyl)amino)pyrimidin-4-yl)-2-pyridyl)oxy)-3-methyl-phenyl)-1-phenyl-methanesulfonamide] | 4.3
CC(C)(F)C1CNCC(Nc2nccc(-c3cccnc3Oc3cc(F)c(NS(=O)(=O)Cc4ccccc4)c(F)c3F)n2)C1 (single isomer, unassigned) [Compound 335, 1-Phenyl-N-(2,3,6-trifluoro-4-((3-(2-((5-(2-fluoropropan-2-yl)piperidin-3-yl)amino)pyrimidin-4-yl)pyridin-2-yl)oxy)phenyl)methanesulfonamide hydrochloride] | 330
CCCS(=O)(=O)Nc1cc(F)c(Oc2ncccc2-c2ccnc(N[C@H]3CC[C@H](N)CC3)n2)c(Cl)c1 [Compound 121, N-(4-((3-(2-(((1r,4r)-4-Aminocyclohexyl)amino)pyrimidin-4-yl)pyridin-2-yl)oxy)-3-chloro-5-fluorophenyl)propane-1-sulfonamide hydrochloride] | 26
Cc1cc(NS(=O)(=O)Cc2ccccc2)c(F)cc1Oc1ncccc1-c1ccnc(N[C@H]2CCCNC2)n1 [Compound 158, (S)-N-(2-fluoro-5-methyl-4-(3-(2-(piperidin-3-ylamino)pyrimidin-4-yl)pyridin-2-yloxy)phenyl)(phenyl)methanesulfonamide] | 5.1
O=S(=O)(CC1(F)CC1)Nc1ccc(Oc2ncccc2-c2ccnc(N[C@H]3CCCNC3)n2)c(F)c1F [Compound 188, (S)-N-(2,3-difluoro-4-((3-(2-(piperidin-3-ylamino)pyrimidin-4-yl)pyridin-2-yl)oxy)phenyl)-1-(1-fluorocyclopropyl)methanesulfonamide] | 11
O=S(=O)(Cc1ccc(C(F)(F)F)nc1)Nc1c(F)cc(Oc2ncccc2-c2ccnc(N[C@H]3CCCNC3)n2)c(F)c1F [Compound 196, (S)-N-(2,3,6-trifluoro-4-((3-(2-(piperidin-3-ylamino)pyrimidin-4-yl)pyridin-2-yl)oxy)phenyl)-1-(6-(trifluoromethyl)pyridin-3-yl)methanesulfonamide] | 2.5
